In patent publication US11236055B2 (Venenum Biodesign, LLC, priority 2016, dated 2022):

Experiments:
[1] = target: T1, mouse TGR5 receptor (Mus musculus, UniProt Q80SS6); assay: Mouse TGR5 cAMP production assay (HTRF, Cisbio cAMP HiRange); type: cell-based; settings: HEK293-EBNA cells overexpressing mouse TGR5, HTRF cAMP HiRange; coded A-D
T1 construct: expressed in transfected cells; host or cells: HEK293-EBNA (293 c18, ATCC CRL10852), Hygromycin B selection
T1 sequence (Q80SS6 1-329): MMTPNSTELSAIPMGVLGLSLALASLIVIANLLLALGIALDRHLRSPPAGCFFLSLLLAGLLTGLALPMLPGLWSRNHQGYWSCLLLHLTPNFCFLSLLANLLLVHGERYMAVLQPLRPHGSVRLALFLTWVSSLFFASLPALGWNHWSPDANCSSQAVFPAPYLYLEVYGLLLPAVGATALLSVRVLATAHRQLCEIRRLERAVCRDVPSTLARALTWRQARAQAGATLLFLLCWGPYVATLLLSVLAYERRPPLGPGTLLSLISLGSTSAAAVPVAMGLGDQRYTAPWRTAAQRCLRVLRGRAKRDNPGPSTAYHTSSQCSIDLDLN
Outline: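 cAMP read by HTRF competition after 1 h room-temperature compound exposure of mouse TGR5-overexpressing HEK293-EBNA cells. Cells were suspended in serum-free DMEM containing 500 μM IBMX; compounds ran as 12-point half-log dilutions in duplicate; EC50 derived.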

[2] = target: T2, human TGR5 receptor (Homo sapiens, UniProt Q8TDU6); assay: Human TGR5 cAMP production assay; type: cell-based; settings: human TGR5, luminescent cAMP assay; coded A-D; read-out: Human TGR5 Lum. cAMP Activity (EC50)
T2 construct: host or cells: CHO-K1 (hTGR5-CHO cells)
T2 sequence (Q8TDU6 1-330): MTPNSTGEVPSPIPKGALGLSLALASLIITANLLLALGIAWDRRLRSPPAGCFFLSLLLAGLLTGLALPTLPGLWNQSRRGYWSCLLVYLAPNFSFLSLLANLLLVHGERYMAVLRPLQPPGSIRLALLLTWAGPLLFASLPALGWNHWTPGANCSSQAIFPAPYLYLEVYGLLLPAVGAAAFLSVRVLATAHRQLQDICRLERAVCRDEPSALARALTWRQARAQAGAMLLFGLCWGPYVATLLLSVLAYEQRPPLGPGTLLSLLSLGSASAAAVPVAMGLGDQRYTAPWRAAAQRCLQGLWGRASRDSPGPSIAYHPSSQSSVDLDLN
Outline: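 Intracellular cAMP read by luminescent enzyme-complementation (XS+) after overnight development, following 1 h room-temperature compound treatment of hTGR5-CHO-K1 cells in IBMX plus anti-cAMP antibody. Compounds tested as half-log dilution series; EC50 derived.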

| EC50 [1] | EC50 [2] | SMILES |
| --- | --- | --- |
| < 100 nM | < 100 nM | Cc1cnccc1-c1cccc(C(C)(C)N(CCCNS(=O)(=O)CCNC(=O)NCCS(=O)(=O)O)S(=O)(=O)c2cccc(Cl)c2C)c1 [Compound 28AD, 2-(3-(2-(N-(3-((3-chloro-2-methyl-N-(2-(3-(3-methylpyridin-4-yl)phenyl)propan-2-yl)phenyl)sulfonamido)propyl)sulfamoyl)ethyl)ureido)ethane-1-sulfonic acid] |
| 100 to 999 nM | < 100 nM | Cc1cnccc1-c1cccc([C@H](C)N(CCCCC(=O)NCCOCCNC(=O)NCCS(=O)(=O)O)S(=O)(=O)c2cccc(Cl)c2C)c1 [Compound 28AF, (S)-17-((3-chloro-2-methylphenyl)sulfonyl)-18-(3-(3-methylpyridin-4-yl)phenyl)-4,12-dioxo-8-oxa-3,5,11,17-tetraazanonadecane-1-sulfonic acid] |
| 100 to 999 nM | 100 to 999 nM | Cc1cnccc1-c1cccc(CN(CCCNC(=O)NCS(=O)(=O)O)S(=O)(=O)c2cccc(Cl)c2C)c1 [Compound 28AI, (3-(3-(3-chloro-2-methyl-N-(3-(3-methylpyridin-4-yl)benzyl)phenylsulfonamido)propyl)ureido)methanesulfonic acid] |
| < 100 nM | < 100 nM | Cc1cnccc1-c1cccc(C(C)(C)N(CCCNC(=O)NCCCS(=O)(=O)O)S(=O)(=O)c2cccc(Cl)c2C)c1 [Compound 29AC] |
| < 100 nM | < 100 nM | Cc1cnccc1-c1cccc([C@H](C)N(CCCCC(=O)NCCOCCNC(=O)CS(=O)(=O)O)S(=O)(=O)c2cccc(Cl)c2C)c1 [Compound 31, (S)-15-((3-chloro-2-methylphenyl)sulfonyl)-16-(3-(3-methylpyridin-4-yl)phenyl)-2,10-dioxo-6-oxa-3,9,15-triazaheptadecane-1-sulfonic acid] |

The remaining lines, values behind:

| SMILES | EC50 [1] | EC50 [2] |
| --- | --- | --- |
| CCc1cnccc1-c1cccc([C@H](C)N(CCCC(=O)NCC[N+](C)(C)C)S(=O)(=O)c2cccc(Cl)c2C)c1 [Compound 27AE, (S)-2-(4-(3-chloro-N-(1-(3-(3-ethylpyridin-4-yl)phenyl)ethyl)-2-methylphenylsulfonamido)butanamido)-N,N,N-trimethylethanaminium] | 100 to 999 nM | < 100 nM |
| Cc1cnccc1-c1cccc([C@H](C)N(CCCCNC(=O)NCCS(=O)(=O)O)S(=O)(=O)c2ccccc2C(F)(F)F)c1 [Compound 28AB, (S)-2-(3-(4-(N-(1-(3-(3-methylpyridin-4-yl)phenyl)ethyl)-2-(trifluoromethyl)phenylsulfonamido)butyl)ureido)ethanesulfonic acid] | 100 to 999 nM | < 100 nM |
| Cc1cnccc1-c1cccc(C(C)(C)N(CCCNS(=O)(=O)CCNC(=O)NCCCS(=O)(=O)O)S(=O)(=O)c2cccc(Cl)c2C)c1 [Compound 28AE, 3-(3-(2-(N-(3-((3-chloro-2-methyl-N-(2-(3-(3-methylpyridin-4-yl)phenyl)-propan-2-yl)phenyl)sulfonamido)-propyl)sulfamoyl)ethyl)ureido)propane-1-sulfonic acid] | 100 to 999 nM | < 100 nM |
| Cc1cnccc1-c1cccc(C(CCCCNC(=O)NCCS(=O)(=O)O)NS(=O)(=O)c2ccccc2C(F)(F)F)c1 (stereo not shown) [Compound 28AG, 2-(3-(5-(3-(3-methylpyridin-4-yl)phenyl)-5-(2-(trifluoromethyl)phenylsulfonamido)pentyl)ureido)ethanesulfonic acid] | 100 to 999 nM | 100 to 999 nM |
| Cc1cnccc1-c1cccc(CCN(CCCNC(=O)NCS(=O)(=O)O)S(=O)(=O)c2cccc(Cl)c2C)c1 [Compound 29AD, (3-(3-(3-chloro-2-methyl-N-(3-(3-methylpyridin-4-yl)phenethyl)phenylsulfonamido)propyl)ureido)methanesulfonic acid] | 1000 to 30000 nM | 100 to 999 nM |
| Cc1cnccc1-c1cccc([C@H](C)N(CCCC(=O)NCCNC(=O)NCCC(=O)O)S(=O)(=O)c2cccc(Cl)c2C)c1 [Compound 30, (S)-3-((3-Chloro-2-methylphenyl)sulfonyl)-2-(3-(3-methylpyridin-4-yl)phenyl)-7,12-dioxo-3,8,11,13-tetraazahexadecan-16-oic acid] | 100 to 999 nM | < 100 nM |
